Data published in US11028079B2 (ConverGene LLC, priority 2015, dated 2021).

Target: T1, BRD4 bromodomains (Homo sapiens, UniProt O60885)
T1 construct: fused on or other part: T7 phage capsid protein (phage-display fusion; the phage DNA is read out by qPCR)
Test: BROMOscan bromodomain competition binding assay (DiscoveRx)
Conditions: Kd from 11 compound concentrations ranging from 0 to 10 μM, read-out: BROMOscan Relative Activity
Method in brief: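 Compounds in 0.1% DMSO/0.9% MEG competed with a solid-phase acetylated peptide for T7 phage-fused BRD4 bromodomains, with the retained bromodomain measured by qPCR.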

Question: How did the Kd turn out when `Cn1cc(-c2ccc3nc(-c4cnn(CCO)c4)nc(NCc4cncc(Cl)c4)c3c2)ccc1=O` [Example 143, 5-(4-(((5-chloropyridin-3-yl)methyl)amino)-2-(1-(2-hydroxyethyl)-1H-pyrazol-4-yl)quinazolin-6-yl)-1-methylpyridin-2(1H)-one] was run?
Answer: < 0.5 µM

Question: How did the Kd turn out when `Cc1noc(C)c1-c1ccc2nc(-c3cnn(CCO)c3)nc(NCc3cncc(Cl)c3)c2c1` [Example 144, 2-(4-(4-(((5-chloropyridin-3-yl)methyl)amino)-6-(3,5-dimethylisoxazol-4-yl)quinazolin-2-yl)-1H-pyrazol-1-yl)ethanol] was run?
Answer: < 0.5 µM

Question: `Cn1cc(-c2ccc3nc(-c4cnn(CC(N)=O)c4)nc(NCc4cncc(Cl)c4)c3c2)ccc1=O` [Example 145, 2-(4-(4-(((5-chloropyridin-3-yl)methyl)amino)-6-(1-methyl-6-oxo-1,6-dihydropyridin-3-yl)quinazolin-2-yl)-1H-pyrazol-1-yl)acetamide] was tested. Which Kd did it give?
Answer: 0.5 to 5 µM

Question: For `CN(C)C(=O)Cn1cc(-c2nc(NCc3cncc(Cl)c3)c3cc(-c4ccc(=O)n(C)c4)ccc3n2)cn1` [Example 146, 2-(4-(4-(((5-chloropyridin-3-yl)methyl)amino)-6-(1-methyl-6-oxo-1,6-dihydropyridin-3-yl)quinazolin-2-yl)-1H-pyrazol-1-yl)-N,N-dimethylacetamide], which Kd is on record?
Answer: < 0.5 µM

Question: Which Kd does the source give for `CNC(=O)Cn1cc(-c2nc(NCc3cncc(Cl)c3)c3cc(-c4ccc(=O)n(C)c4)ccc3n2)cn1` [Example 147, 2-(4-(4-(((5-chloropyridin-3-yl)methyl)amino)-6-(1-methyl-6-oxo-1,6-dihydropyridin-3-yl)quinazolin-2-yl)-1H-pyrazol-1-yl)-N-methylacetamide] here?
Answer: < 0.5 µM

Question: For `Cn1cc(-c2ccc3nc(-c4cnn(CC(C)(C)O)c4)nc(NCc4cncc(Cl)c4)c3c2)ccc1=O` [Example 148, 5-(4-(((5-chloropyridin-3-yl)methyl)amino)-2-(1-(2-hydroxy-2-methylpropyl)-1H-pyrazol-4-yl)quinazolin-6-yl)-1-methylpyridin-2(1H)-one], which Kd is on record?
Answer: 0.5 to 5 µM

Question: For `Cn1cc(-c2ccc3nc(-c4cnn(C(C)(C)CO)c4)nc(NCc4cncc(Cl)c4)c3c2)ccc1=O` [Example 149, 5-(4-(((5-chloropyridin-3-yl)methyl)amino)-2-(1-(1-hydroxy-2-methylpropan-2-yl)-1H-pyrazol-4-yl)quinazolin-6-yl)-1-methylpyridin-2(1H)-one], which Kd is on record?
Answer: < 0.5 µM

Question: For `Cc1noc(C)c1-c1ccc2nc(-c3cnn(CCO)c3)nc(Nc3ccc(Cl)cc3)c2c1` [Example 150, 2-(4-(4-((4-chlorophenyl)amino)-6-(3,5-dimethylisoxazol-4-yl)quinazolin-2-yl)-1H-pyrazol-1-yl)ethanol], which Kd is on record?
Answer: 0.5 to 5 µM

Question: `Cc1noc(C)c1-c1ccc2nc(Cl)nc(Nc3ccc(Cl)cc3)c2c1` [Example 151, 2-chloro-N-(4-chlorophenyl)-6-(3,5-dimethylisoxazol-4-yl)quinazolin-4-amine] was tested. Which Kd did it give?
Answer: > 5 µM

Question: For `Cc1noc(C)c1-c1ccc2nc(N3CCN(S(C)(=O)=O)CC3)nc(NCc3cncc(Cl)c3)c2c1` [Example 152, N-((5-chloropyridin-3-yl)methyl)-6-(3,5-dimethylisoxazol-4-yl)-2-(4-(methylsulfonyl)piperazin-1-yl)quinazolin-4-amine], which Kd is on record?
Answer: < 0.5 µM

Question: `Cc1noc(C)c1-c1ccc2nc(N3CCC(S(C)(=O)=O)CC3)nc(NCc3cccc(Cl)c3)c2c1` [Example 153, N-(3-chlorobenzyl)-6-(3,5-dimethylisoxazol-4-yl)-2-(4-(methylsulfonyl)piperidin-1-yl)quinazolin-4-amine] was tested. Which Kd did it give?
Answer: < 0.5 µM

Question: For `Cc1noc(C)c1-c1ccc2nc(N3CCC(S(C)(=O)=O)CC3)nc(NCc3cncc(Cl)c3)c2c1` [Example 154, N-((5-chloropyridin-3-yl)methyl)-6-(3,5-dimethylisoxazol-4-yl)-2-(4-(methylsulfonyl)piperidin-1-yl)quinazolin-4-amine], which Kd is on record?
Answer: < 0.5 µM

Question: How did the Kd turn out when `Cc1noc(C)c1-c1ccc2nc(N3CCN(S(C)(=O)=O)CC3)nc(NCc3cccc(Cl)c3)c2c1` [Example 155, N-(3-chlorobenzyl)-6-(3,5-dimethylisoxazol-4-yl)-2-(4-(methylsulfonyl)piperazin-1-yl)quinazolin-4-amine] was run?
Answer: < 0.5 µM

Question: `Cc1noc(C)c1-c1ccc2nc(N3CCC(C)(C#N)CC3)nc(NCc3cccc(Cl)c3)c2c1` [Example 156, 1-(4-((3-chlorobenzyl)amino)-6-(3,5-dimethylisoxazol-4-yl)quinazolin-2-yl)-4-methylpiperidine-4-carbonitrile] was tested. Which Kd did it give?
Answer: 0.5 to 5 µM

Question: `Cc1noc(C)c1-c1ccc2nc(N3CCC(C)(C#N)CC3)nc(NCc3cncc(Cl)c3)c2c1` [Example 157, 1-(4-(((5-chloropyridin-3-yl)methyl)amino)-6-(3,5-dimethylisoxazol-4-yl)quinazolin-2-yl)-4-methylpiperidine-4-carbonitrile] was tested. Which Kd did it give?
Answer: < 0.5 µM

Question: `Cc1noc(C)c1-c1ccc2ncnc(Nc3ccc(Cl)cc3)c2c1` [Example 158, N-(4-chlorophenyl)-6-(3,5-dimethylisoxazol-4-yl)quinazolin-4-amine] was tested. Which Kd did it give?
Answer: 0.5 to 5 µM

Question: `Cn1cc(-c2ccc3ncnc(Nc4ccc(Cl)cc4)c3c2)ccc1=O` [Example 159, 5-(4-((4-chlorophenyl)amino)quinazolin-6-yl)-1-methylpyridin-2(1H)-one] was tested. Which Kd did it give?
Answer: > 5 µM

Question: With `Cc1noc(C)c1-c1ccc2nc(N3CCN(CCN(C)C)CC3)nc(NCCc3ccc(Cl)cc3)c2c1` [Example 160, N-(4-chlorophenethyl)-2-(4-(2-(dimethylamino)ethyl)piperazin-1-yl)-6-(3,5-dimethylisoxazol-4-yl)quinazolin-4-amine] as the compound, how does the Kd read?
Answer: 0.5 to 5 µM

Question: For `Cc1noc(C)c1-c1ccc2nc(N3CCN(CCN(C)C)CC3)nc(N3CC(Cc4ccccc4)C3)c2c1` [Example 161, 2-(4-(4-(3-benzylazetidin-1-yl)-6-(3,5-dimethylisoxazol-4-yl)quinazolin-2-yl)piperazin-1-yl)-N,N-dimethylethanamine], which Kd is on record?
Answer: 0.5 to 5 µM

Question: How did the Kd turn out when `Cc1noc(C)c1-c1ccc2nc(N3CCN(CCN(C)C)CC3)nc(Nc3ccc(Cl)cc3)c2c1` [Example 162, N-(4-chlorophenyl)-2-(4-(2-(dimethylamino)ethyl)piperazin-1-yl)-6-(3,5-dimethylisoxazol-4-yl)quinazolin-4-amine] was run?
Answer: 0.5 to 5 µM

Question: `Cc1noc(C)c1-c1ccc2nc(C(=O)O)nc(NCc3cccc(Cl)c3)c2c1` [Example 163, 4-((3-chlorobenzyl)amino)-6-(3,5-dimethylisoxazol-4-yl)quinazoline-2-carboxylic acid] was tested. Which Kd did it give?
Answer: < 0.5 µM

Question: How did the Kd turn out when `Cc1noc(C)c1-c1ccc2nc(-c3cnn(CCO)c3)nc(NC3(c4cccc(Cl)c4)CC3)c2c1` [Example 164, 2-(4-(4-((1-(3-chlorophenyl)cyclopropyl)amino)-6-(3,5-dimethylisoxazol-4-yl)quinazolin-2-yl)-1H-pyrazol-1-yl)ethanol] was run?
Answer: < 0.5 µM

Question: With `Cc1noc(C)c1-c1ccc2nc(C(=O)N3CCN(CCN(C)C)CC3)nc(NCc3cccc(Cl)c3)c2c1` [Example 165, (4-((3-chlorobenzyl)amino)-6-(3,5-dimethylisoxazol-4-yl)quinazolin-2-yl)(4-(2-(dimethylamino)ethyl)piperazin-1-yl)methanone] as the compound, how does the Kd read?
Answer: 0.5 to 5 µM

Question: `Cc1noc(C)c1-c1ccc2nc(-c3cnn(CC(=O)O)c3)nc(NCc3cccc(Cl)c3)c2c1` [Example 166, 2-(4-(4-((3-chlorobenzyl)amino)-6-(3,5-dimethylisoxazol-4-yl)quinazolin-2-yl)-1H-pyrazol-1-yl)acetic acid] was tested. Which Kd did it give?
Answer: < 0.5 µM

Question: How did the Kd turn out when `Cc1noc(C)c1-c1ccc2nc(NCc3ccc(Cl)cc3)nc(NCc3cccc(Cl)c3)c2c1` [Example 167, N4-(3-chlorobenzyl)-N2-(4-chlorobenzyl)-6-(3,5-dimethylisoxazol-4-yl)quinazoline-2,4-diamine] was run?
Answer: > 5 µM

Question: With `Cc1noc(C)c1-c1ccc2nc(C(=O)NCc3ccc(Cl)cc3)nc(NCc3cccc(Cl)c3)c2c1` [Example 168, N-(4-chlorobenzyl)-4-((3-chlorobenzyl)amino)-6-(3,5-dimethylisoxazol-4-yl)quinazoline-2-carboxamide] as the compound, how does the Kd read?
Answer: > 5 µM

Question: For `Cc1noc(C)c1-c1ccc2nc(Oc3ccc(Cl)cc3)nc(NCc3cccc(Cl)c3)c2c1` [Example 169, N-(3-chlorobenzyl)-2-(4-chlorophenoxy)-6-(3,5-dimethylisoxazol-4-yl)quinazolin-4-amine], which Kd is on record?
Answer: > 5 µM

Question: With `Cc1noc(C)c1-c1ccc2nc(N3CCN(CCN(C)C)CC3)nc(NC3(c4cccc(Cl)c4)CC3)c2c1` [Example 170, N-(1-(3-chlorophenyl)cyclopropyl)-2-(4-(2-(dimethylamino)ethyl)piperazin-1-yl)-6-(3,5-dimethylisoxazol-4-yl)quinazolin-4-amine] as the compound, how does the Kd read?
Answer: < 0.5 µM

Question: With `Cc1noc(C)c1-c1ccc2nc(C(=O)NCc3ccncc3)nc(NCc3cccc(Cl)c3)c2c1` [Example 171, 4-((3-chlorobenzyl)amino)-6-(3,5-dimethylisoxazol-4-yl)-N-(pyridin-4-ylmethyl)quinazoline-2-carboxamide] as the compound, how does the Kd read?
Answer: < 0.5 µM

Question: Which Kd does the source give for `Cc1noc(C)c1-c1ccc2nc(C(=O)NC3CCN(C)CC3)nc(NCc3cccc(Cl)c3)c2c1` [Example 172, 4-((3-chlorobenzyl)amino)-6-(3,5-dimethylisoxazol-4-yl)-N-(1-methylpiperidin-4-yl)quinazoline-2-carboxamide] here?
Answer: < 0.5 µM

Question: `Cc1noc(C)c1-c1ccc2nc(N3CCN(CCN(C)C)CC3)nc(N[C@H](CO)c3ccccc3)c2c1` [Example 173, (S)-2-((2-(4-(2-(dimethylamino)ethyl)piperazin-1-yl)-6-(3,5-dimethylisoxazol-4-yl)quinazolin-4-yl)amino)-2-phenylethanol] was tested. Which Kd did it give?
Answer: < 0.5 µM

Question: Which Kd does the source give for `Cc1noc(C)c1-c1ccc2nc(N3CCN(CCN(C)C)CC3)nc(N3CCCC3c3ccccc3)c2c1` (stereo not drawn) [Example 174, 2-(4-(6-(3,5-dimethylisoxazol-4-yl)-4-(2-phenylpyrrolidin-1-yl)quinazolin-2-yl)piperazin-1-yl)-N,N-dimethylethanamine] here?
Answer: < 0.5 µM

Question: How did the Kd turn out when `Cc1noc(C)c1-c1ccc2nc(N3CCN(CCN(C)C)CC3)nc(N3CCCCC3c3ccccc3)c2c1` (stereo not drawn) [Example 175, 2-(4-(6-(3,5-dimethylisoxazol-4-yl)-4-(2-phenylpiperidin-1-yl)quinazolin-2-yl)piperazin-1-yl)-N,N-dimethylethanamine] was run?
Answer: < 0.5 µM
